Test results: US4882331A, “1-[(1,1-diphenyl)-1-alkenyl]piperazine derivatives, method of preparation and pharmaceutical compositions in which they are present” (priority 1987, dated 1989)

What was measured:
[1] = tested on: pain syndrome caused by phenylbenzoquinone (PBQ); assay: Peripheral analgesic activity (phenylbenzoquinone); format: in vivo; details: mouse; IP
Method: 5. Peripheral analgesic activity
A peritoneal pain is caused in mice by the intraperitoneal injection of phenylbenzoquinone (PBQ).
The test assesses the decrease in the pain syndrome, characterized by an abdominal twisting movement, which is caused by injecting the test derivative 30 min before the administration of PBQ.
The 50% effective dose is calculated from the percentage decrease in the pain syndrome relative to the control animals.

yohimbine toxicity = assay: Yohimbine test (yohimbine toxicity); format: in vivo; details: 24 h; mouse; IP; yohimbine 25 mg/kg IP
Method: The test derivative is administered 30 min before the injection of yohimbine (25 mg/kg IP).
The number of deaths is counted 24 h after the injection of yohimbine.

in vivo = details: mouse, in vivo, ip
Method: (§1) The toxicity of the compounds of the invention was determined by the following test:
(§2) Determination of the 50% lethal dose (LD50) in mice
(§3) The test product was administered intraperitoneally to groups of 5 male mice and 5 female mice at a rate of 0.1 ml per 10 g of body weight.

mice = assay: Determination of the 50% lethal dose (LD50) in mice; details: mice, IP
Method: as §1, §2, §3

motor activity of mice = assay: Study of the spontaneous motility (photoelectric actimeter); format: in vivo; details: mouse, IP; for Activity (spontaneous motility): doses in mg.kg^-1
Method: 1. Study of the spontaneous motility
The motor activity of mice was determined using a Boissier and Simon photoelectric actimeter.
The mice are placed in groups of five in a box closed with a lid, through which two perpendicular rays of light pass; the mice cut across these rays as they move.
These movements are counted by a meter, which is read 30 min and 1 h after the administration of the test derivative.

[2] = tested on: head twitches induced by 5-HTP; assay: Head twitches caused by 5-hydroxytryptophane (5-HTP); format: in vivo; details: Mus musculus; male mice; IP; 5-HTP 4 mg/kg; read-out: Antagonism of the head twitches induced by 5-HTP: decrease as from dose
Method: 1. Head twitches caused by 5-hydroxytryptophane (5-HTP)
(§4) Animals: male mice of 25±1 g
At time T-3 h, 100 mg/kg of pargyline were injected intraperitoneally.
(§5) At time T-30 minutes, the test product or distilled water (control) was injected intraperitoneally.
At time T=O, 5-HTP was injected intraperitoneally at a dose of 4 mg/kg.
All the jerky head movements made by the mice were observed over a 1-minute period every twelve minutes.
(§6) The mean number of movements was calculated and compared with the control group.

[3] = tested on: head twitches induced by 5-MeODMT; assay: Head twitches caused by 5-methoxydimethyltryptamine (5-MeODMT); format: in vivo; details: Mus musculus; male mice; IP; 5-MeODMT 4 mg/kg; read-out: Antagonism of the head twitches induced by 5-MeODMT: decrease as from dose
Method: 2. Head twitches caused by 5-methoxydimethyltryptamine (5-MeODMT)
as §4
At time T-3 hours, 100 mg/kg of pargyline were injected intraperitoneally.
as §5
At time T=O, 5-MeODMT was injected intraperitoneally at a dose of 4 mg/kg.
The number of head twitches was observed.
as §6

[4] = tested on: penile erections and yawning; assay: Penile erections caused by apomorphine; format: in vivo; details: Rattus norvegicus; rats; IP; apomorphine 0.20 mg/kg; read-out: Antagonism of the penile erections and yawning: antagonism as from dose
Method: 3. Penile erections caused by apomorphine
The test product was administered parenterally or orally to rats, placed in a transparent cage, 30 minutes before the intraperitoneal injection of 0.20 mg/kg of apomorphine.
The number of penile erections was recorded over the 30 minutes following the injection of apomorphine.
A statistical study was carried out by comparison with the numbers of erections in the control rats.

[5] = tested on: hyperthermia and clinical signs after tranylcypromine and tryptophan; assay: Grahame Smith's test; format: in vivo; details: rats; PO
Method: Animals: male rats of 200±10 g
At time T-30 minutes, the test product was administered intraperitoneally.
At time T=O, an MAOI was administered intraperitoneally (tranylcypromine, 20 mg/kg).
At time T+20 minutes, 250 mg/kg of tryptophan were administered (IP).
The temperature of the rats was recorded every 30 minutes for 200 minutes and the various clinical signs (motor agitation--hypersalivation--catatonia of the tail--hyperesthesia--thrashing of the tail, etc.) were noted on a scale of 0 to 1.
The mean temperatures and the average symptoms observed were calculated by comparison with the controls.

central nervous system = assay: Pharmacological tests on the central nervous system, overall result; format: in vivo, mouse, rat; details: overall statement on Table III
Method: The pharmacological properties of the compounds of the invention were determined using the following tests: Experimental protocols The results obtained are collated in Table III below. […]

[6] = tested on: antiserotoninergic activity; assay: Antiserotoninergic activity tests, overall result; format: in vivo, mice, rats; details: overall statement on Table IV
Text: The compound of Example 1 was furthermore tested for its antiserotoninergic activity according to the following tests: […]

[7] = tested on: mouse muscle-relaxing action; assay: Muscle-relaxing action (traction test); format: in vivo; details: IP, doses in mg.kg^-1
Text: 3. Muscle-relaxing action (traction test)
This test assesses the presence or absence of redressments in a mouse brought up to a horizontal wire with its front paws.
The number of mice which are unable to grip the wire with one of their back paws within 5 s is noted.
A 50% effective dose can be calculated from the results obtained.

SMILES	ED50 [1]	ED50 (yohimbine toxicity)	LD50 (in vivo)	FIDUCIAL LIMITS of LD50, CALCULATION ACCORDING TO LITCHFIELD and WILCOXON (mice)	also measured
Fc1ccc(OCCN2CCN(CCC=C(c3ccccc3)c3ccc(F)cc3)CC2)cc1 [Compound 17]	5.2 mg/kg	> 25 mg/kg	–	–	–
Fc1ccc(OC(CCN2CCN(CCC=C(c3ccccc3)c3ccccc3)CC2)c2ccccc2)cc1 (stereo not drawn) [Compound 5]	–	–	314 mg/kg	234 to 421 mg/kg	–
Fc1ccc(OCCCN2CCN(CCC=C(c3ccccc3)c3ccccc3)CC2)cc1 [Compound 6]	–	25 mg/kg	247 mg/kg	206 to 296 mg/kg	–
O=C(CCCN1CCN(CCC=C(c2ccccc2)c2ccccc2)CC1)c1ccc(F)cc1 [Compound 7]	–	> 25 mg/kg	–	–	ED50 (motor activity of mice): 7.5 mg/kg
Fc1ccc(OCCCCN2CCN(CCC=C(c3ccccc3)c3ccccc3)CC2)cc1 [Compound 8]	6.25 mg/kg	> 25 mg/kg	199 mg/kg	172 to 229 mg/kg	–
Cc1ccccc1OC(CCN1CCN(CCC=C(c2ccccc2)c2ccccc2)CC1)c1ccccc1 (stereo not drawn) [Compound 4]	1.5 mg/kg	–	386 mg/kg	279 to 453 mg/kg	Activity (spontaneous motility) (motor activity of mice): Increase
Fc1ccc(OCCN2CCN(CCC=C(c3ccccc3)c3ccccc3)CC2)cc1 [Compound 1, 1-[(1,1-diphenyl)-1-buten-4-yl]-4-[1-(2-(4-fluorophenoxy)ethyl]piperazine dimethanesulfonate]	1.5 mg/kg	31 mg/kg	231 mg/kg	195 to 274 mg/kg	minimal effective dose [2]: ≥ 18.8 mg/kg; minimal effective dose [3]: ≥ 6.25 mg/kg; minimal effective dose [4]: ≥ 6.25 mg/kg; Grahame Smith's test: decrease at dose [5]: 37.5 mg/kg; antidepressant / central nervous system activity (central nervous system): antidepressants with a greater activity than the known antidepressants; antiserotoninergic activity [6]: possesses an antiserotoninergic activity
CN(C)CCCN1c2ccccc2CCc2ccccc21 [IMIPRAMINE]	–	–	–	–	Muscle-relaxing action, traction test [7]: No action
O=C(O)CCCCCCNC1c2ccccc2CCc2ccccc21 [AMINEPTINE]	–	–	–	–	Muscle-relaxing action, traction test [7]: No action
Cc1ccc(OCCCCN2CCN(CCC=C(c3ccccc3)c3ccccc3)CC2)cc1 [Compound 14]	2.5 mg/kg	> 25 mg/kg	–	–	Activity (spontaneous motility) (motor activity of mice): Decrease
Fc1ccc(OCCN2CCN(CCCC=C(c3ccccc3)c3ccccc3)CC2)cc1 [Compound 16]	4.5 mg/kg	–	–	–	–
